Legend:
topical fat = format: in vivo, human
Source text: In order to find the optimal doses of hyaluronidase facilitating lipolysis, the present inventor conducted experiments with hyaluronidase unit doses of 10 IU, 50 IU, 100 IU, 150 IU, 200 IU, 250 IU, 300 IU, 350 IU, 400 IU, 450 IU, 500 IU, 550 IU, 600 IU, 650 IU, 700 IU, 750 IU, 800 IU, 850 IU, 900 IU, 950 IU, 1000 IU, 1050 IU, 1100 IU, 1150 IU, 1200 IU, 1250 IU, 1300 IU, 1350 IU, 1400 IU, 1450 IU, and 1500 IU.
It was shown in clinical trials that at the above dose range, if the injection composition is administered in a volume of 1 cc containing 300 IU of hyaluronidase, the diameter of the diffusion range is about 1 cm. Thus, with the hyaluronidase dose set at 300 IU to 600 IU, by injecting the composition at a volume of 0.5 to 2 cc depending on the hyaluronidase dose and at injection points with an interval of 0.5 to 1.5 cm between the injection points, injection at narrow intervals is possible and consequently, lipolysis occurs evenly. Furthermore, a lifting effect occurs concomitantly where skin resilience is improved by the promotion of collagen production through stimulation of the skin by the injection needle.
Thus, by administering an injection composition of the present invention having the above compositional ranges, the side effects from using the drugs are minimized and fat removal over a wide area can be carried out using a minimal volume.
It was shown in clinical trials that at a hyaluronidase of 300 IU, the diameter of the diffusion range for the injection composition is about 1 cm. Thus, by injecting the composition at narrow intervals between injection points of 0.5 to 2 cm, even fat removal as well as collagen production by skin stimulation can be facilitated.

Compound	time until the onset of action for the local anesthetic effect, later compared to lidocaine	Lipolysis (topical fat; unit dose 300 IU or below)	Fat removal (topical fat; unit dose above 600 IU)	Fat removal effect and side effects (topical fat; unit dose of 300 IU to 600 IU)	minimum amount of hyaluronidase exhibiting efficacy (topical fat; unit dose per injection) [IU]
CCN(CC)CCOC(=O)c1ccc(N)cc1 [procaine]	more than 10 minutes				
hyaluronidase		sufficient lipolysis did not occur	excellent effects were obtained in terms of fat removal	possible to ensure the fat removal effect while minimizing side effects	300
